Laboratory results as given in patent US20100311748A1, “HETEROCYCLIC AMIDES USEFUL FOR THE TREATMENT OF CANCER AND PSORIASIS” (ASTRAZENECA AB, priority 2007, published 2010).

Each compound was assayed on Hedgehog pathway (assay: Hedgehog Pathway Cellular Differentiation Assay (alkaline phosphatase production in C3H10T1/2 cells with Shh ligand)). Conditions: Mus musculus, C3H 10T1/2, 3 μM compound, Shh ligand conditioned media, 72 h, alkaline phosphatase.
Assay type: cell-based
Outline: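 C3H10T1/2 cells in DMEM/2% FBS with Shh-conditioned medium were treated 72 h with compound, threefold dilutions from 30 μM to 3 nM. After RIPA lysis, alkaline phosphatase was read with pNp (1 mg/mL, diethanolamine pH 9.8) at 30 °C, absorbance 405 nm. Percent inhibition and IC50 came from absorbance.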

| Structure (SMILES) | inhibition at 3 µM |
| --- | --- |
| Cc1ccc(-c2nc(-c3nccs3)c[nH]2)cc1NC(=O)c1ccc(OCc2ccccn2)cc1 [Example 82, N-{2-methyl-5-[4-(1,3-thiazol-2-yl)-1H-imidazol-2-yl]phenyl}-4-(pyridin-2-ylmethoxy)benzamide] | 68.6% |
| Cc1ccc(-c2ncc[nH]2)cc1NC(=O)c1ccc(OCc2cc(OCCN3CCCCC3)ccn2)cc1 [Example 95, N-[5-(1H-imidazol-2-yl)-2-methylphenyl]-4-{[4-(2-piperidin-1-ylethoxy)pyridin-2-yl]methoxy}benzamide] | 47% |
| Cc1ccc(-c2cnc(C)n2C)cc1NC(=O)c1ccc(OCc2ccccc2C#N)cc1 [Example 55, 4-[(2-cyanophenyl)methoxy]-N-[5-(2,3-dimethylimidazol-4-yl)-2-methyl-phenyl]benzamide] | 84.3% |
| Cc1cc(C)c(-c2ncn(C)c2CO)cc1NC(=O)c1ccc(OCc2ccccn2)cc1 [Example 79, N-(5-(5-(hydroxymethyl)-1-methyl-1H-imidazol-4-yl)-2,4-dimethylphenyl)-4-(pyridin-2-ylmethoxy)benzamide] | 85.9% |
| Cc1ccc(-c2ncc[nH]2)cc1NC(=O)c1ccc(OCC2CCCCN2)cc1 (stereo not shown) [Example 142, N-(5-(1H-imidazol-2-yl)-2-methylphenyl)-4-(piperidin-2-ylmethoxy)benzamide] | 31.3% |
| Cc1ccc(-c2cnn(CC(C)C)c2)cc1NC(=O)c1ccc(OCc2ccccn2)cc1 [Example 36, N-[2-methyl-5-[1-(2-methylpropyl)pyrazol-4-yl]phenyl]-4-(pyridin-2-ylmethoxy)benzamide] | 26.9% |
| Cc1ccc(-c2ncc[nH]2)cc1NC(=O)c1ccc(OCc2cccc(N3CCN(C)CC3)n2)cc1 [Example 128, N-(5-(1H-imidazol-2-yl)-2-methylphenyl)-4-((6-(4-methylpiperazin-1-yl)pyridin-2-yl)methoxy)benzamide] | 81.5% |
| Cc1ccc(-c2ncc[nH]2)cc1NC(=O)c1ccc(OCc2cc(N3CCN(CCO)CC3)ccn2)cc1 [Example 90, 4-({4-[4-(2-hydroxyethyl)piperazin-1-yl]pyridin-2-yl}methoxy)-N-[5-(1H-imidazol-2-yl)-2-methylphenyl]benzamide] | 61.5% |
| Cc1ccc(-c2nccs2)cc1NC(=O)c1ccc(OCc2ccccn2)cc1 [Example 16, N-(2-methyl-5-1,3-thiazol-2-yl-phenyl)-4-(pyridin-2-ylmethoxy)benzamide] | 68.6% |
| Cc1ccc(-c2cn3ccsc3n2)cc1NC(=O)c1ccc(OCc2ccccn2)cc1 [Example 5, N-[2-methyl-5-(4-thia-1,6-diazabicyclo[3.3.0]octa-2,5,7-trien-7-yl)phenyl]-4-(pyridin-2-ylmethoxy)benzamide] | 68.8% |
